Data as given in patent publication US20080045582A1, “ENA-78 Gene Polymorphisms and Protein Concentrations as Diagnostic and Prognostic Tools” (priority 2006, published 2008).

Experiments:
CXCL5 = CXCL5 gene expression in HUVECs, real-time RT-PCR normalized to GAPDH; type: cell-based, human; conditions: IL-1beta, 24 hours, FIG. 17
Protocol: Human umbilical vein endothelial cells (HUVECs) (Clonetics Cell Systems; Cambrex Bio Science Walkersville, Inc., Walkersville, USA) were cultured as previously described. Briefly, HUVECs between passes three and four were seeded at a density of 2.5×10^4 cells per cm^2 and cultured to 80% confluence with endothelial cell growth-supplemented medium (EGM-2-endothelial cell medium-2; Cambrex Bio Science Walkersville, Inc.). Once confluent, media was changed to serum free endothelial basal media (EBM-2-endothelial cell medium-2; Cambrex Bio Science Walkersville, Inc.) for 24 hours prior to treatment, in which EBM-2 media supplemented to a 2% FBS concentration was used. Treatments consisted of atorvastatin calcium (AT; LKT Laboratories Inc., St. […] All were dissolved in molecular grade water. All final DMSO concentrations were less then 0.1%. […] In experiments investigating the impact of AT on IL-1beta-stimulated ENA-78 production, HUVECs were pre-treated with AT followed by IL-1beta stimulation two hours later. […] In a separate set of experiments, cells were cultured with IL-1beta and AT in the presence or absence of mevalonate, FPP, and GGPP to determine whether AT inhibition of ENA-78 production was dependent on HMG-CoA reductase inhibition and subsequent downstream pathways. Cell culture supernates for all experiments were stored at -20° C. until analysis, which was performed within seven days. ENA-78 concentrations were measured and normalized to total protein content in cell culture supernates using cytometric immunofluorescence as previously described. Ribonucleic acid (RNA) was isolated using a commercial kit (RNeasy mini kit, Qiagen Inc., Valencia, USA). […] RNA quality was assessed by absorbance (Nanodrop, Nanodrop Technologies, Wilmington, USA). […] Statistical differences in normalized protein concentrations and gene expression levels were determined by one way ANOVA and post-hoc Tukey analysis. […]

ENA-78 [1] = assay: IL-1beta-stimulated ENA-78 production from HUVECs, cytometric immunofluorescence; type: cell-based, human; conditions: for stimulation of ENA-78 production by IL-1beta, times that of basal production: FIG. 15; for effect of co-treatment on the effect of AT on IL-1beta-stimulated ENA-78 production: IL-1beta and AT 10 uM, mevalonate 250 μM, FPP 5 μM, GGPP 5 μM
Protocol: Human umbilical vein endothelial cells (HUVECs) (Clonetics Cell Systems; Cambrex Bio Science Walkersville, Inc., Walkersville, USA) were cultured as previously described. Briefly, HUVECs between passes three and four were seeded at a density of 2.5×10^4 cells per cm^2 and cultured to 80% confluence with endothelial cell growth-supplemented medium (EGM-2-endothelial cell medium-2; Cambrex Bio Science Walkersville, Inc.). Once confluent, media was changed to serum free endothelial basal media (EBM-2-endothelial cell medium-2; Cambrex Bio Science Walkersville, Inc.) for 24 hours prior to treatment, in which EBM-2 media supplemented to a 2% FBS concentration was used. Treatments consisted of atorvastatin calcium (AT; LKT Laboratories Inc., St. […] All were dissolved in molecular grade water. All final DMSO concentrations were less then 0.1%. […] In experiments investigating the impact of AT on IL-1beta-stimulated ENA-78 production, HUVECs were pre-treated with AT followed by IL-1beta stimulation two hours later. […] In a separate set of experiments, cells were cultured with IL-1beta and AT in the presence or absence of mevalonate, FPP, and GGPP to determine whether AT inhibition of ENA-78 production was dependent on HMG-CoA reductase inhibition and subsequent downstream pathways. Cell culture supernates for all experiments were stored at -20° C. until analysis, which was performed within seven days. ENA-78 concentrations were measured and normalized to total protein content in cell culture supernates using cytometric immunofluorescence as previously described. Ribonucleic acid (RNA) was isolated using a commercial kit (RNeasy mini kit, Qiagen Inc., Valencia, USA). Complementary deoxyribonucleic acid (cDNA) conversion was performed by high capacity cDNA reverse transcription (Applied Biosystems, Foster City, USA) per protocol using roughly 2 μg of total RNA. RNA quality was assessed by absorbance (Nanodrop, Nanodrop Technologies, Wilmington, USA). Real-time reverse-transcription PCR (RT-PCR) was done using primer and probe sets for CXCL5 normalized to a housekeeping gene, glyceraldehyde-3-phosphate dehydrogenase (GAPDH; Taqman Gene Expression Assays, Applied Biosystems Inc.). […] PCR for both CXCL5 and GAPDH was performed at the same time using the following conditions: 95° C. for 2 minutes; 35 cycles of 95° C. for 30 seconds, 59° C. for 30 seconds, and 72° C. for 30 seconds; followed by 7 minutes of elongation at 72° C. Statistical differences in normalized protein concentrations and gene expression levels were determined by one way ANOVA and post-hoc Tukey analysis. […] An independent t-test was used to compare treatment differences at the same time points in the dose range analysis. […] Statistical analyses were performed with SPSS software, version 11.5 (SPSS Inc., Chicago, USA).

IL-6 = IL-6 production by non-stimulated human umbilical vein endothelial cells, multiplex protein measurement; type: cell-based; conditions: atorvastatin plus mevalonate 250 μM
Protocol: Human umbilical vein endothelial cells were obtained (Clonetics Cell Systems; Cambrex Bio Science Walkersville, Inc., Walkersville, Md.). Approximately 5×10^5 viable cells were seeded in endothelial cell growth-supplemented basal medium (EGM-2-endothelial cell medium-2; Cambrex Bio Science Walkersville, Inc.) and maintained at 37° C. under a 5% carbon dioxide atmosphere per manufacturer's protocol. The culture medium was changed 24 hours after seeding and every 48 hours thereafter until confluence. Cells were then treated with trypsin, seeded in a 48-well culture dish, and incubated under the conditions previously described. Cells used in this Example were from the third passage. […]
The culture-conditioned media protein content of epithelial neutrophil-activating peptide-78 (ENA-78), interleukin-8, (IL-8), monocyte chemotactic protein-1 (MCP-1), interleukin-6 (IL-6), interleukin-10 (IL-10), fibroblast growth factor (FGF), and granulocyte colony-stimulating factor (G-CSF) were measured by means of flow-based immunofluorescence multiplex detection (Fluorokine MAP Human Cytokine Panel; R&D Systems Inc., Minneapolis, Minn.) with the Luminex 100 IS platform (Luminex Corp., Austin, Tex.). […]

ENA-78 [2] = assay: ENA-78 production by non-stimulated human umbilical vein endothelial cells, multiplex protein measurement; type: cell-based
Protocol: (§1) Human umbilical vein endothelial cells were obtained (Clonetics Cell Systems; Cambrex Bio Science Walkersville, Inc., Walkersville, Md.). Approximately 5×10^5 viable cells were seeded in endothelial cell growth-supplemented basal medium (EGM-2-endothelial cell medium-2; Cambrex Bio Science Walkersville, Inc.) and maintained at 37° C. under a 5% carbon dioxide atmosphere per manufacturer's protocol. The culture medium was changed 24 hours after seeding and every 48 hours thereafter until confluence. Cells were then treated with trypsin, seeded in a 48-well culture dish, and incubated under the conditions previously described. Cells used in this Example were from the third passage.
(§2) After cells reached 70-80% confluence in the culture dish, they were allowed to become quiescent in unsupplemented, serum-free medium for 24 hours before treatment and then placed in medium containing 2% fetal bovine serum. Atorvastatin (LKT Laboratories Inc., St. Paul, Minn.) was dissolved in dimethylsulfoxide (Sigma-Aldrich, St. Louis, Mo.). Cells were treated for 24 hours with atorvastatin 1-50 μM alone or with atorvastatin plus mevalonate 250 μM (Sigma-Aldrich). Controls were cells cultured without atorvastatin or atorvastatinmevalonate. […] All experiments were performed in duplicate.
(§3) After treatment, culture-conditioned media were collected, divided into aliquots, and stored at −80° C. for no longer than 7 days until multiplex measurement of chemokines, cytokines, and angiogenic factors was performed.
(§4) The culture-conditioned media protein content of epithelial neutrophil-activating peptide-78 (ENA-78), interleukin-8, (IL-8), monocyte chemotactic protein-1 (MCP-1), interleukin-6 (IL-6), interleukin-10 (IL-10), fibroblast growth factor (FGF), and granulocyte colony-stimulating factor (G-CSF) were measured by means of flow-based immunofluorescence multiplex detection (Fluorokine MAP Human Cytokine Panel; R&D Systems Inc., Minneapolis, Minn.) with the Luminex 100 IS platform (Luminex Corp., Austin, Tex.). Concentrations for each sample were normalized against milligrams of total protein by using a standard bicinchoninic acid protein assay (Pierce Biotechnology, Inc., Rockford, Ill.). Samples were assayed in duplicate.
(§5) Standard curves of best fit for each analyte were generated by plotting the median fluorescence intensities of the analyte standards against their known concentrations by using Beadview multiplex data analysis software version 1 (Upstate, Charlottesville, Va.).
(§6) Differences in biomolecular concentrations were compared by treatment group by applying one-way analysis of variance and a post-hoc Tukey's test as appropriate. The Jonckheere Terpstra test was performed to assess the trend for differences in biomolecular concentrations across concentrations of atorvastatin. […]

IL-8 = IL-8 production by non-stimulated human umbilical vein endothelial cells, multiplex protein measurement; type: cell-based
Protocol: as §1, §2, §3, §4, §5
Differences in biomolecular concentrations were compared by treatment group by applying one-way analysis of variance and a post-hoc Tukey's test as appropriate. The Jonckheere Terpstra test was performed to assess the trend for differences in biomolecular concentrations across concentrations of atorvastatin. A p value below 0.05 was considered to indicate a statistically significant difference. Statistical analyses were performed with SPSS software, version 11.5 (SPSS Inc., Chicago, Ill.).

MCP-1 = MCP-1 production by non-stimulated human umbilical vein endothelial cells, multiplex protein measurement; type: cell-based; conditions: highest concentration of atorvastatin plus mevalonate 250 μM
Protocol: as §1, §2, §3, §4, §5, §6

[3] = highest concentration of atorvastatin

Substance | CXCL5 expression in HUVECs (CXCL5) | stimulation of ENA-78 production by IL-1beta, times that of basal production (ENA-78 [1]; 4 hours) [times] | stimulation of ENA-78 production by IL-1beta, times that of basal production (ENA-78 [1]; 12 hours) [times] | stimulation of ENA-78 production by IL-1beta, times that of basal production (ENA-78 [1]; 24 hours) [times] | stimulation of ENA-78 production by IL-1beta, times that of basal production (ENA-78 [1]; 48 hours) [times] | IL-1beta stimulated ENA-78 production relative to constitutive concentrations (ENA-78 [1]; IL-1beta 2 ng/ml, FIG. 14) [fold] | IL-1beta stimulated ENA-78 production (ENA-78 [1]; IL-1beta 2 ng/ml, no AT (constitutive 69±11 pg/mg), FIG. 14) [pg/mg] | IL-1beta-stimulated ENA-78 production (ENA-78 [1]; IL-1beta alone, mevalonate experiment, FIG. 16) [pg/mg] | effect of co-treatment on the effect of AT on IL-1beta-stimulated ENA-78 production (ENA-78 [1]; FIG. 16) | effect of mevalonate on atorvastatin effect on IL-6 (IL-6) | effect of mevalonate cotreatment on atorvastatin effect on ENA-78 production (ENA-78 [2]; atorvastatin plus mevalonate 250 μM, 24 hours) | reversal of atorvastatin effects on ENA-78 by mevalonate (ENA-78 [2]; [3]) | reversal of atorvastatin effects on IL-8 by mevalonate (IL-8; [3]) | effect of addition of mevalonate on atorvastatin effect on IL-8 (IL-8; mevalonate 250 μM, all atorvastatin groups) | effect of mevalonate cotreatment on atorvastatin effect on MCP-1 (MCP-1)
interleukin-1beta [IL-1beta] | highly induced | 29 | 282 | 892 | 1322 | ~60 | 4075 ± 360 | 3181 ± 590 |  |  |  |  |  |  | 
farnesyl pyrophosphate [FPP] |  |  |  |  |  |  |  |  | partially reversed |  |  |  |  |  | 
mevalonate |  |  |  |  |  |  |  |  | partially reversed | eliminated | reversed | potentially incomplete reversal | potentially incomplete reversal | reversed | reversed
